Experimental data as given in PMC6017645, “Substrate Binding Switches the Conformation at the Lynchpin Site in the Substrate-Binding Domain of Human Hsp70 to Enable Allosteric Interdomain Communication” (Molecules : A Journal of Synthetic Chemistry and Natural …, 2018).

Experiments:
[1] = target: T1, SBD(∆CDE)-y of human Hsp70 (Homo sapiens, UniProt P0DMV8, L542Y); experiment: Binding kinetics estimated from simulation of NMR exchange
T1 construct: We solved the solution structure of SBD(∆CDE) comprising residues 382–564; His6 (N, cleaved yes); made in house; host or cells: E. coli BL21(DE3)
Description: This gives a kon = 2.3 × 10^4 M^−1 s^−1, which is consistent with the kinetics for the lidless SBD of DnaK in binding to its target peptide (kon = 2 × 10^4 M^−1 s^−1 and koff = 12.5 s^−1).
The NMR titration experiments were performed by acquiring a series of 2D ^1H-^15N HSQC spectra of the protein in 50 mM potassium phosphate (pH 7.0), 50 mM KCl and 10 mM DTT at 310 K (37 °C). The NR-peptide (0.075 mM, 0.15 mM, 0.30 mM, 0.60 mM, 1.2 mM, 3.0 mM and 6.0 mM) was titrated into a sample containing 0.3 mM ^15N labeled SBD(∆CDE)-y. Data processing and analysis were performed with NMRPipe and KUJIRA [41], respectively. The dissociation constant, KD, was estimated by fitting Equation (1) to the bound fraction of SBD(∆CDE)-y, fbound: (1) fbound([L]total)=1−I([L]total)/I0=([P]total+[L]total+KD)−([P]total+[L]total+KD)^2−4[P]total[L]total/2[P]total where [L]total and [P]total are the total concentrations of NR-peptide and SBD(∆CDE)-y, respectively, and I and I0 are the signal intensities with and without NR-peptide. Each signal intensity was measured by a similar procedure described in Section 4.3. […] Uncertainties in the dissociation constant was estimated by Monte Carlo simulations on the basis of the uncertainty for each signal intensity evaluated using the root-mean-square deviation value on a spectral region with no signals, which was obtained by the NMRPipe built-in module.

[2] = system: SBD in Hsp70 with covalently modified E444; details: PDB ID: 4WV7; ref [29]; cited from earlier work
From the text: E444 in Hsp70 is accessible by NBD in the apo-form SBD(∆CDE)-y, whereas it is covered by the Lα,β loop and therefore this interaction is hindered in the substrate-bound form (Figure 7a,b). This is consistent with the observation for Q442 in DnaK, as described above.

[3] = target: T2, SBD(∆CDE)-y, substrate-binding domain of human Hsp70 (HSPA1A) lacking αC, αD and αE, with the L542Y mutation (human, UniProt P0DMV8 382-564, L542Y); experiment: NMR titration; 2D 1H-15N HSQC; NR-peptide (0.075-6.0 mM) titrated into 0.3 mM 15N-labelled SBD(∆CDE)-y; 50 mM potassium phosphate pH 7.0, 50 mM KCl, 10 mM DTT, 37 °C; slow exchange; global fit of signal intensities of 28 residues; details: both partners purified
T2 construct: Cloned in pET16b (NdeI/XhoI); 15N- or 13C/15N-labelled for NMR, unlabelled (LB medium) for ITC; also called mutant SBD; apo-form SBD; source: E. coli BL21(DE3), purified (HisTrap FF, Factor Xa cleavage, HiTrap Q FF); not shown: His6, N-terminal, cleaved

[4] = target: T3, SBD(∆CDE) (S537C/L542Y) mutant, labelled at residue 537 with MTSL or its diamagnetic analog (human, UniProt P0DMV8 382-564, S537C | L542Y, MTSL nitroxide radical, or the diamagnetic MTSL analog, on C537); experiment: NMR paramagnetic relaxation enhancement; 2D 1H-15N HSQC of 0.5 mM spin-labelled SBD(∆CDE) (S537C/L542Y) with/without 5.0 mM NR-peptide; 50 mM potassium phosphate pH 7.0, 50 mM KCl, 37 °C; details: both partners purified
T3 construct: 15N-labelled for NMR; PDB 5XIR is the parent SBD(∆CDE)-y without S537C; also called SBD(∆CDE)-y harboring a S537C mutation; SBD(∆CDE)-y with spin labeling at residue 537; source: E. coli BL21(DE3), purified (as in Section 4.1), then labelled with MTSL; not shown: His6, N-terminal, cleaved

[5] = target: T2, SBD(∆CDE)-y, substrate-binding domain …; experiment: ITC; 1.5 μL injections of 5 mM NR-peptide into 200 μL of 0.1 mM SBD(∆CDE)-y; single-site fit with the stoichiometry fixed as n = 1; triplicate; details: both partners purified

T1 sequence (P0DMV8 382-564 L542Y): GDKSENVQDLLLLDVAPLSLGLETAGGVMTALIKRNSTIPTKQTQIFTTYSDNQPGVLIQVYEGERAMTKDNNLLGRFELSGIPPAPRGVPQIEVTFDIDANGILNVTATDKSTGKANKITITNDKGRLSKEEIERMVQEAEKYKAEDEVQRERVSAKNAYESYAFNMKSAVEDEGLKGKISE
T2 sequence (P0DMV8 382-564 L542Y): as above
T3 sequence (P0DMV8 382-564 S537C/L542Y): as the sequence (P0DMV8 382-564 L542Y) above, with S156C counted along it

Molecule: CC(C)C[C@H](NC(=O)[C@H](CC(C)C)NC(=O)[C@H](CCCNC(=N)N)NC(=O)[C@@H](N)CC(N)=O)C(=O)N[C@@H](CC(C)C)C(=O)N[C@H](C(=O)NCC(=O)O)[C@@H](C)O [NR-peptide]
- kon ([1]; from koff 30 s^−1 and KD = 1.3 mM): 23000 M⁻¹ s⁻¹
- koff ([1]; simulation using average R2 rate 21 s^−1 and KD = 1.3 mM, SBD(∆CDE)-y 0.3 mM, peptide 3.0 mM, read-out: maximum koff): ≤ 30 s⁻¹

Molecule: C=CC1=CC[C@H]2[C@@H](C[C@@H](O)[C@@]3(O)[C@@]4(C)C(=O)O[C@H]4CC[C@]23C)[C@H]1C [novolactone]
- effect of covalent E444 modification on interdomain interactions [2]: sterically blocks the interdomain interactions

B1: NR-peptide (peptide)
peptide: NRLLLTG
notes: Model client peptide of Hsp70; also called NRLLLTG; client-peptide
- Kd [3]: 1.3 mM
- binding result [4]: binds
- Kd [5]: 1.5 mM
